Some test systems named below: UACC-257 melanoma; SF-268 CNS; UACC-62 melanoma; BT-549 breast; OVCAR-3 ovarian; HCT-116 colon; 786-0 renal; HT29 colon; UO-31 renal; T-47D breast; SNB-75 CNS; LOX IMVI melanoma; KM12 colon; M14 melanoma; OVCAR-4 ovarian; SK-MEL-28 melanoma; RXF 393 renal; HCT-15 colon; MALME-3M melanoma.
Assay in all cases: NCI-60 cell line screen, 48 h

SMILES strings stand for the structures.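 Cells were grown in 96-well plates and exposed to each compound for 48 hours at five concentrations; endpoints were interpolated linearly between bracketing concentrations, or set to the highest concentration if not reached. TGI is the concentration that stops growth completely.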

As to `COC(=O)C12OC(C)(C(CC(=O)OC(C)(C)C)C1=O)C1C(=O)N(c3ccccc3)C(=O)C12` (centres undefined), the TGI in the assay with UACC-257 melanoma, with SF-268 CNS, with UACC-62 melanoma, with BT-549 breast, with OVCAR-3 ovarian and in the assay with HCT-116 colon was more than 100 µM each time. The TGI with 786-0 renal, with HT29 colon, in the assay on UO-31 renal, in the assay with T-47D breast, in the assay on SNB-75 CNS and with LOX IMVI melanoma was more than 100 µM in each case. The TGI with KM12 colon, in the assay with M14 melanoma, with OVCAR-4 ovarian, in the assay on SK-MEL-28 melanoma, in the assay on RXF 393 renal and with HCT-15 colon was more than 100 µM in each case. In the assay with MALME-3M melanoma, this compound registered a TGI of more than 100 µM.

On to `Cc1nc(Nc2ccc(F)cc2)c2sc(=S)n(-c3ccc(F)cc3)c2n1`, for which the TGI with UACC-257 melanoma is 26.2 µM; in the assay on SF-268 CNS it was 23 µM; in the assay with UACC-62 melanoma, 29.6 µM; in the assay on BT-549 breast, 27.1 µM; with OVCAR-3 ovarian, 30.9 µM; in the assay with HCT-116 colon it was 15 µM. For the same compound, the TGI came to 21.6 µM in the assay with 786-0 renal; 19.9 µM in the assay on HT29 colon; 30.1 µM in the assay on UO-31 renal; 19.8 µM with T-47D breast; 29.6 µM with SNB-75 CNS; 17 µM in the assay on LOX IMVI melanoma. In addition, the TGI in the assay on KM12 colon is 28.2 µM; in the assay with M14 melanoma, 15.5 µM; with OVCAR-4 ovarian it was 40.8 µM; with SK-MEL-28 melanoma, 27.8 µM; in the assay with RXF 393 renal, 25.1 µM; in the assay with HCT-15 colon it was 13.8 µM. In the assay with MALME-3M melanoma, this compound returned a TGI of 28.8 µM.

For the compound `CCOC(=O)c1cc(C2CCN(CC(C)CC)C2=S)c(-c2cc(C)no2)[nH]1` (centres undefined), the TGI in the assay with UACC-257 melanoma, in the assay on SF-268 CNS, in the assay on UACC-62 melanoma, in the assay on BT-549 breast, with OVCAR-3 ovarian and in the assay with HCT-116 colon was more than 100 µM in each case. For the same compound, the TGI in the assay on 786-0 renal was more than 100 µM; with HT29 colon, more than 100 µM; in the assay on UO-31 renal, 82.4 µM; with T-47D breast it was more than 100 µM; in the assay on SNB-75 CNS, more than 100 µM; in the assay with LOX IMVI melanoma, more than 100 µM. The TGI with KM12 colon, with M14 melanoma, in the assay on OVCAR-4 ovarian, with SK-MEL-28 melanoma, in the assay with RXF 393 renal and in the assay with HCT-15 colon was more than 100 µM in each case. In the assay on MALME-3M melanoma, this compound had a TGI of more than 100 µM.

Turning to `COc1cc(C[C@H]2C(=O)OC[C@@H]2Cc2ccc(OC)c(OC)c2)cc(OC)c1`, the TGI in the assay on UACC-257 melanoma, in the assay with SF-268 CNS, in the assay with UACC-62 melanoma, with BT-549 breast, in the assay with OVCAR-3 ovarian and with HCT-116 colon was more than 100 µM in each case. Also, the TGI in the assay on 786-0 renal was more than 100 µM; with HT29 colon it was more than 100 µM; with UO-31 renal, more than 100 µM; with T-47D breast, more than 100 µM; in the assay on SNB-75 CNS, more than 100 µM; with LOX IMVI melanoma it was 49.5 µM. Besides, the TGI in the assay with KM12 colon, in the assay on M14 melanoma, in the assay on OVCAR-4 ovarian, in the assay on SK-MEL-28 melanoma, with RXF 393 renal and in the assay on HCT-15 colon was more than 100 µM in each case. Besides, the TGI in the assay on MALME-3M melanoma was more than 100 µM.

Consider `CCOP1(=O)C=C(Sc2ccc([N+](=O)[O-])cc2[N+](=O)[O-])C(C)(C)O1` (centres undefined), for which the TGI in the assay with UACC-257 melanoma came to 25 µM; in the assay with SF-268 CNS, 49.5 µM; in the assay on UACC-62 melanoma, 26.4 µM; in the assay with BT-549 breast, 32.2 µM; in the assay on OVCAR-3 ovarian, 25.9 µM; in the assay with HCT-116 colon it was 18.8 µM. Also, the TGI in the assay on 786-0 renal was 23.6 µM; in the assay on HT29 colon, more than 75.9 µM; in the assay on UO-31 renal, 28.3 µM; in the assay on T-47D breast, 32 µM; in the assay with SNB-75 CNS it was 50.3 µM; in the assay on LOX IMVI melanoma, more than 34.9 µM. In addition, the TGI in the assay on KM12 colon amounted to 38.6 µM; in the assay with M14 melanoma, 24.5 µM; in the assay on OVCAR-4 ovarian it was 28.9 µM; in the assay on SK-MEL-28 melanoma, 32 µM; with RXF 393 renal, 31.8 µM; in the assay on HCT-15 colon it was 36.7 µM. This compound also yielded a TGI with MALME-3M melanoma of 31.4 µM.

In the case of `O=c1[nH]/c(=C/c2ccc(OCc3ccccc3)cn2)c(=O)[nH]/c1=C/c1ccc(Cl)cc1`, the TGI with UACC-257 melanoma was more than 100 µM; in the assay on SF-268 CNS, more than 52.4 µM; with UACC-62 melanoma, more than 100 µM; in the assay on BT-549 breast it was more than 100 µM; in the assay on OVCAR-3 ovarian, 2.45 µM; in the assay with HCT-116 colon, more than 100 µM. Besides, the TGI in the assay with 786-0 renal is more than 100 µM; in the assay on HT29 colon it was more than 100 µM; in the assay with UO-31 renal it was more than 100 µM; in the assay on T-47D breast it was more than 100 µM; with SNB-75 CNS it was 25.2 µM; in the assay with LOX IMVI melanoma, more than 100 µM. In addition, the TGI in the assay on KM12 colon is more than 100 µM; with M14 melanoma it was more than 100 µM; in the assay with OVCAR-4 ovarian it was more than 100 µM; in the assay with SK-MEL-28 melanoma, more than 100 µM; in the assay with RXF 393 renal it was more than 28.3 µM; in the assay on HCT-15 colon it was more than 100 µM. This compound returned a TGI in the assay with MALME-3M melanoma of more than 100 µM.

Values taken from PubChem BioAssay (NCI).
